Like-named read-outs stand apart in the source and are kept apart here.
Legend:
Assay type in all cases: cell-based
[1] = tested on: MCF-7 (human mammary carcinoma); test: Cytotoxicity test on sensitive tumour cell lines (sulforodamine B test); settings: 24 h incubation, survival after 48 h, ± S.D., read-out: antiproliferative activity IC50, MCF-7
Description: (§1) This test was used to evaluate the survival of the human cell lines MCF-7 (human mammary carcinoma), LoVo (human colon adenocarcinoma), and MES-SA (human uterine sarcoma). The tumour cells were incubated with the compound, at scalar concentrations, (500 μM÷0.97 μM) for 24 hours; the compound was then removed and cell survival was evaluated after 48 hours using the sulforodamine B test (J. Natl. Cancer Inst. 82, 1107–1112). The antiproliferative activity of the compounds was evaluated in terms of the IC50 (concentration of the molecule that inhibits 50% of cell survival) processed with a curve-fitting program (Am. J. Physiol. 1978., 235, E97–E102) and expressed as μM±S.D.

[2] = tested on: LoVo (human colon adenocarcinoma); test: as above; settings: 24 h incubation, survival after 48 h, ± S.D., read-out: antiproliferative activity IC50, Lovo
Description: as §1

[3] = tested on: MES-SA (human uterine sarcoma); test: as above; settings: 24 h incubation, survival after 48 h, ± S.D., read-out: antiproliferative activity IC50, Mes-Sa
Description: as §1

[4] = tested on: MCF-7-Dx (human mammary carcinoma); test: Cytotoxicity test on resistant tumour cell lines, tested compound alone; settings: 24 h incubation, survival after 48 h, ± SD
Description: (§2) This test was used to evaluate the survival of human cell lines resistant to doxorubicin (about 100 times) and cross-resistant to daunorubicin, actinomycin D, mitoxantrone, vincristine, vinblastin, taxol, colchicine, and etoposide.
(§3) The following cell lines were used: MCF-7-Dx (human mammary carcinoma), LoVo-Dx (human colon adenocarcinoma), MES-SA Dx (human uterine sarcoma).
(§4) Before using the association doxorubicin-tested compound, the cytotoxicity of the cells was evaluated with the tested compound (alone) as follows: the cells were incubated with the compound, at scalar concentrations (500 μM÷0.97 μM), for 24 hours; the compound was then removed and cell survival was evaluated after 48 hours with the above-mentioned sulforodamine B test. The antiproliferative activity of the compounds was evaluated in terms of IC50 (concentration of the compound that inhibits 50% of cell survival) processed with the above-mentioned curve-fitting program.

[5] = tested on: MES-SA Dx (human uterine sarcoma); test: as above; settings: 24 h incubation, survival after 48 h, ± SD
Description: as §2, §3, §4

[6] = tested on: LoVo-Dx (human colon adenocarcinoma); test: as above; settings: 24 h incubation, survival after 48 h, ± SD
Description: as §2, §3, §4

FCCCCC(c1c[nH]c2ccccc12)c1c[nH]c2ccccc12 [ST 1382, 1,1-(diindol-3-yl)-5-fluoro-pentane]
IC50 [1]: 28.5 ± 6 µM | IC50 [2]: 33.5 ± 3.7 µM | IC50 [3]: 40.2 ± 4.1 µM | IC50 [4]: 40.2 ± 3 µM | IC50 [5]: 12.5 ± 0.3 µM | IC50 [6]: 34.3 ± 6.9 µM

CCCC(c1c[nH]c2ccccc12)c1c[nH]c2ccccc12 [ST 1385, 1,1-di-indol-3-yl-butane]
IC50 ([1]; Homo sapiens, MCF7): 27 ± 3.2 µM | IC50 ([2]; Homo sapiens, LoVo): 26.4 ± 0.4 µM | IC50 ([3]; Homo sapiens, MES-SA): 19.5 ± 4 µM | IC50 ([4]; Homo sapiens, MCF7/DX): 34.6 ± 2 µM | IC50 ([5]; Homo sapiens, MES-SA Dx): 33.6 ± 2.9 µM | IC50 ([6]; Homo sapiens, LoVo/DX): 17.6 ± 0.9 µM

CCCC(c1c[nH]c2ccc(O)cc12)c1c[nH]c2ccc(O)cc12 [ST 1393, 1,1-di-(5-hydroxyindol-3-yl)-butane]
IC50 ([1]; Homo sapiens, MCF7): 5.9 ± 0.8 µM | IC50 ([2]; Homo sapiens, LoVo): 3 ± 0.5 µM | IC50 ([3]; Homo sapiens, MES-SA): 5.7 ± 0.1 µM | IC50 ([4]; Homo sapiens, MCF7/DX): 9.2 ± 0.4 µM | IC50 ([5]; Homo sapiens, MES-SA Dx): 7.5 ± 0.3 µM | IC50 ([6]; Homo sapiens, LoVo/DX): 2.7 ± 0.4 µM

CCCC(c1c[nH]c2ccc([N+](=O)[O-])cc12)c1c[nH]c2ccc([N+](=O)[O-])cc12 [ST 1429, 1,1-di-(5 nitroindol-3-yl)-butane]
IC50 ([1]; Homo sapiens, MCF7): 10.4 ± 0.3 µM | IC50 ([2]; Homo sapiens, LoVo): 23.6 ± 0.5 µM | IC50 ([3]; Homo sapiens, MES-SA): 15 ± 2.5 µM | IC50 ([4]; Homo sapiens, MCF7/DX): 12.9 ± 0.7 µM | IC50 ([5]; Homo sapiens, MES-SA Dx): 15.3 ± 0.4 µM | IC50 ([6]; Homo sapiens, LoVo/DX): 10.2 ± 0.5 µM

CCCC(c1c[nH]c2ccc(N)cc12)c1c[nH]c2ccc(N)cc12 [ST 1437, 1,1-di-(5-amino-indol-3-yl)-butane. 2HCl]
IC50 [1]: 8.3 ± 1.2 µM | IC50 [2]: 16.7 ± 3.4 µM | IC50 [3]: 4.4 ± 0.06 µM | IC50 [5]: 12.2 ± 0.8 µM | IC50 [6]: 8 ± 0.6 µM

CCCC(c1c[nH]c2ccc(F)cc12)c1c[nH]c2ccc(F)cc12 [ST 1438, 1,1-di-(5-fluoroindol-3-yl)-butane]
IC50 ([1]; Homo sapiens, MCF7): 28.1 ± 0.9 µM | IC50 ([2]; Homo sapiens, LoVo): 20 ± 0.8 µM | IC50 ([3]; Homo sapiens, MES-SA): 21.8 ± 4.4 µM | IC50 ([4]; Homo sapiens, MCF7/DX): 41.8 ± 5.3 µM | IC50 ([5]; Homo sapiens, MES-SA Dx): 35.6 ± 1.7 µM | IC50 ([6]; Homo sapiens, LoVo/DX): 25.9 ± 3.1 µM
